Data published in article PMC10821124, “Dimeric 3,5-Bis(benzylidene)-4-piperidones: Tumor-Selective Cytotoxicity and Structure-Activity Relationships” (Medicines, 2024).

Legend:
[1] = tested on: human oral squamous cell carcinoma HSC-2 cells; assay: Cytotoxicity, MTT method, HSC-2 cells; assay type: cell-based; settings: for CC50: Homo sapiens, HSC-2, 48 h, MTT, mean ± SD, read-out: CC50 HSC-2; for SI (selectivity index) HSC-2: average CC50 non-malignant cells / CC50 HSC-2
Procedure: (§1) Human promyelocytic leukemia [HL-60 (RCB3683)] (purchased from Riken Cell Bank, Tsukuba, Japan) was cultured at 37 °C in RPMI1640 medium (Fujifilm Wako Pure Chemical Co., Osaka, Japan) supplemented with 10% heat (56 °C, 30 min) inactivated FBS (Sigma-Aldrich Inc. St. Louis, MO, USA), 100 U/mL penicillin G, and 100 µg/mL streptomycin sulfate in a humidified 5% CO2 incubator (MCO-170 AICUVD-P, Panasonic Healthcare Co., Ltd., Gunma, Japan). Human oral squamous cell carcinoma (OSCC) cell lines derived from tongue [HSC-2 (RCB1945), HSC-3 (RCB1975), HSC-4 (RCB1902)] (Riken Cell Bank), and human normal oral cells (gingival fibroblasts, HGF; pulp cell, HPC; periodontal ligament fibroblast, HPLF), established from the first premolar extracted tooth in the lower jaw and periodontal tissues of a child, according to the guidelines of Meikai University Ethic Committee (No. A0808), were cultured in DMEM medium (Fujifilm Wako Pure Chemical Co.) supplemented with 10% FBS and antibiotics. The compounds in Series 2–4 were evaluated against HL-60, HSC-2, HSC-3, HSC-4, HGF, HPC, and HPLF cells based on a literature procedure, as described previously. In brief, near confluent cells were incubated in triplicate for 48 h at 37 °C with different concentrations ([…], 6.3, 12.5, 25, 50, 100 µM) of the compounds; then, viable cell numbers were measured using the MTT method. From the dose–response curve, a 50% cytotoxic concentration (CC50) was determined. All samples were dissolved in dimethylsulfoxide (DMSO). The toxicity of DMSO alone was calculated and subtracted. The CC50 values were determined from dose–response curves.

[2] = tested on: human oral squamous cell carcinoma HSC-4 cells; assay: Cytotoxicity, MTT method, HSC-4 cells; assay type: cell-based; settings: for CC50: Homo sapiens, HSC-4, 48 h, MTT, mean ± SD, read-out: CC50 HSC-4; for SI (selectivity index) HSC-4: average CC50 non-malignant cells / CC50 HSC-4
Procedure: as §1

[3] = Cytotoxicity, MTT method, HPC non-malignant cells; assay type: cell-based, human; settings: human, pulp cells (HPC), non-malignant, mean ± SD
Procedure: as §1

[4] = tested on: human promyelocytic leukemia HL-60 cells; assay: Cytotoxicity, MTT method, HL-60 cells; assay type: cell-based; settings: for CC50: Homo sapiens, HL-60, 48 h, MTT, mean ± SD, read-out: CC50 HL-60; for SI (selectivity index) HL-60: average CC50 non-malignant cells / CC50 HL-60
Procedure: as §1

[5] = Cytotoxicity, MTT method, HGF non-malignant cells; assay type: cell-based, human; settings: human, gingival fibroblasts (HGF), non-malignant, mean ± SD
Procedure: as §1

[6] = Cytotoxicity, MTT method, HPLF non-malignant cells; assay type: cell-based, human; settings: human, periodontal ligament fibroblasts (HPLF), non-malignant, mean ± SD
Procedure: as §1

[7] = tested on: human tumour cell lines HL-60, HSC-2, HSC-3, HSC-4; assay: Cytotoxicity, average over the four human tumour cell lines; assay type: cell-based; settings: for CC50: Homo sapiens, average of HL-60, HSC-2, HSC-3, HSC-4, read-out: AVE. CC50, human tumour cell lines; for AVE SI: average of the four SI values; for PSE (potency-selectivity expression): product of reciprocal of average CC50 (neoplastic cells) and average SI times 100; for CC50 values in all four bioassays (range in words): HL-60, HSC-2, HSC-3, HSC-4
Procedure: as §1

[8] = tested on: human oral squamous cell carcinoma HSC-3 cells; assay: Cytotoxicity, MTT method, HSC-3 cells; assay type: cell-based; settings: for CC50: Homo sapiens, HSC-3, 48 h, MTT, mean ± SD, read-out: CC50 HSC-3; for SI (selectivity index) HSC-3: average CC50 non-malignant cells / CC50 HSC-3
Procedure: as §1

[9] = Cytotoxicity, average over the three human normal cells; assay type: cell-based; settings: human, average of HGF, HPC, HPLF; read-out: AVE CC50, human normal cells
Procedure: as §1

| SMILES | CC50 [1] [nM] | SI (selectivity index) HSC-2 [1] | CC50 [2] [nM] | SI (selectivity index) HSC-4 [2] | CC50 at 48 h [3] [nM] | CC50 [4] [nM] | SI (selectivity index) HL-60 [4] | CC50 at 48 h [5] [nM] | CC50 at 48 h [6] [nM] | CC50 [7] [nM] | AVE SI [7] | PSE (potency-selectivity expression) [7] | CC50 [8] [nM] | SI (selectivity index) HSC-3 [8] | CC50 at 48 h [9] [nM] | CC50 values in all four bioassays (range in words) [7] |
| --- | --- | --- | --- | --- | --- | --- | --- | --- | --- | --- | --- | --- | --- | --- | --- | --- |
| O=C1/C(=C/c2ccccc2)CN(C(=O)C(=O)N2C/C(=C\c3ccccc3)C(=O)/C(=C/c3ccccc3)C2)C/C1=C\c1ccccc1 [Compound 2a] | 85 ± 13 | 38.4 | 200 ± 11 | 16.3 | 680 ± 73 | 110 ± 9 | 29.6 | 3800 ± 520 | 5300 ± 500 | 140 | 26.5 | > 100 | 150 ± 22 | 21.7 | 3260 | – |
| O=C1/C(=C/c2ccc(F)cc2)CN(C(=O)C(=O)N2C/C(=C\c3ccc(F)cc3)C(=O)/C(=C/c3ccc(F)cc3)C2)C/C1=C\c1ccc(F)cc1 [Compound 2b] | 37 ± 9 | 40.5 | 33 ± 9 | 45.5 | 1400 ± 110 | 37 ± 17 | 40.5 | 1200 ± 100 | 1900 ± 360 | 40 | 37.3 | – | 66 ± 8 | 22.7 | 1500 | double-digit nanomolar range |
| O=C1/C(=C/c2ccc(Cl)c(Cl)c2)CN(C(=O)C(=O)N2C/C(=C\c3ccc(Cl)c(Cl)c3)C(=O)/C(=C/c3ccc(Cl)c(Cl)c3)C2)C/C1=C\c1ccc(Cl)c(Cl)c1 [Compound 2d] | 5900 ± 120 | 5.81 | 6400 ± 150 | 5.36 | 23000 ± 3100 | 8400 ± 17 | 4.08 | 36000 ± 3100 | 44000 ± 3200 | 7280 | 4.83 | – | 8400 ± 870 | 4.08 | 34300 | – |
| Cc1ccc(/C=C2\CN(C(=O)C(=O)N3C/C(=C\c4ccc(C)cc4)C(=O)/C(=C/c4ccc(C)cc4)C3)C/C(=C\c3ccc(C)cc3)C2=O)cc1 [Compound 2e] | 1800 ± 250 | 25.0 | 2300 ± 250 | 19.6 | 23000 ± 1200 | 2700 ± 780 | 16.7 | 45000 ± 4600 | 67000 ± 4500 | 2780 | 18.0 | – | 4300 ± 1100 | 10.5 | 45000 | – |
| COc1ccc(/C=C2\CN(C(=O)C(=O)N3C/C(=C\c4ccc(OC)c(OC)c4)C(=O)/C(=C/c4ccc(OC)c(OC)c4)C3)C/C(=C\c3ccc(OC)c(OC)c3)C2=O)cc1OC [Compound 2f] | 420 ± 25 | 29.8 | 160 ± 24 | 78.1 | 2400 ± 700 | 190 ± 26 | 65.8 | 24000 ± 1100 | 11000 ± 980 | 250 | 57.0 | – | 230 ± 97 | 54.4 | 12500 | – |
| COc1cc(/C=C2\CN(C(=O)C(=O)N3C/C(=C\c4cc(OC)c(OC)c(OC)c4)C(=O)/C(=C/c4cc(OC)c(OC)c(OC)c4)C3)C/C(=C\c3cc(OC)c(OC)c(OC)c3)C2=O)cc(OC)c1OC [Compound 2g] | 63 ± 9 | 9.05 | 88 ± 29 | 6.48 | 280 ± 70 | 37 ± 2 | 15.4 | 470 ± 140 | 950 ± 12 | 60 | 11.8 | > 100 | 35 ± 6 | 16.3 | 570 | double-digit nanomolar range |
| O=C1/C(=C/c2ccccc2)CN(C(=O)CC(=O)N2C/C(=C\c3ccccc3)C(=O)/C(=C/c3ccccc3)C2)C/C1=C\c1ccccc1 [Compound 3a] | 50 ± 1 | 18.4 | 84 ± 5 | 11.0 | 360 ± 100 | 46 ± 9 | 20.0 | 1100 ± 10 | 1300 ± 330 | 60 | 17.4 | – | 46 ± 26 | 20.0 | 920 | double-digit nanomolar range |
| Cc1ccc(/C=C2\CN(C(=O)CC(=O)N3C/C(=C\c4ccc(C)cc4)C(=O)/C(=C/c4ccc(C)cc4)C3)C/C(=C\c3ccc(C)cc3)C2=O)cc1 [Compound 3e] | 1600 ± 390 | 15.4 | 1900 ± 150 | 13.0 | 19000 ± 2700 | 1400 ± 150 | 17.6 | 20000 ± 1300 | 35000 ± 4200 | 1780 | 14.3 | – | 2200 ± 200 | 11.2 | 24700 | – |
| COc1ccc(/C=C2\CN(C(=O)CC(=O)N3C/C(=C\c4ccc(OC)c(OC)c4)C(=O)/C(=C/c4ccc(OC)c(OC)c4)C3)C/C(=C\c3ccc(OC)c(OC)c3)C2=O)cc1OC [Compound 3f] | 340 ± 76 | 4.41 | 128 ± 14 | 11.7 | 1600 ± 78 | 260 ± 21 | 5.77 | 1100 ± 84 | 1800 ± 50 | 230 | 7.35 | – | 200 ± 140 | 7.50 | 1500 | – |
| COc1cc(/C=C2\CN(C(=O)CC(=O)N3C/C(=C\c4cc(OC)c(OC)c(OC)c4)C(=O)/C(=C/c4cc(OC)c(OC)c(OC)c4)C3)C/C(=C\c3cc(OC)c(OC)c(OC)c3)C2=O)cc(OC)c1OC [Compound 3g] | 65 ± 16 | 2.92 | 38 ± 9 | 5.00 | 180 ± 30 | 30 ± 0.2 | 6.33 | 93 ± 20 | 300 ± 47 | 40 | 4.92 | > 100 | 35 ± 5 | 5.43 | 190 | double-digit nanomolar range |
| O=C1/C(=C/c2ccccc2)CN(CCCN2C/C(=C\c3ccccc3)C(=O)/C(=C/c3ccccc3)C2)C/C1=C\c1ccccc1 [Compound 4] | 210 ± 32 | 19.1 | 83 ± 21 | 48.2 | 3700 ± 2000 | 180 ± 11 | 22.2 | 3000 ± 210 | 5300 ± 610 | 210 | 25.2 | > 100 | 350 ± 110 | 11.4 | 4000 | – |
